Results reported in US20110040086A1, “Novel Beta-Lactam Antibiotics, Methods for Their Production, and Their Use” (DRITTE PATENTPORTFOLIO BETEILIGUNGSGESELLSCHAFT MB, priority 2007, published 2011).

Key:
S. aureus 520 = test: agar diffusion test (Test System II, multi-resistant germs); format: cell-based, Staphylococcus aureus; set-up: key: r = resistant (no detectable zone of inhibition)
How it was run: (§1)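 A McFarland 0.5 bacterial suspension in physiological saline is spread vertically, horizontally and transversely over Müller-Hinton agar II. Three sensi-discs bearing 10, 50 and 100 μg of test compound go onto each plate, which then incubates at 37 °C for 18-20 h before zone diameters are recorded.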

[1] = system: S. aureus North Germany strain; test: as above; format: cell-based, Staphylococcus aureus; set-up: key: r = resistant (no detectable zone of inhibition)
How it was run: as §1

S. aureus 36881 = test: as above; format: cell-based, Staphylococcus aureus; set-up: key: r = resistant (no detectable zone of inhibition)
How it was run: as §1

[2] = system: Staphylococcus haemolyticus 535; test: as above; format: cell-based; set-up: key: r = resistant (no detectable zone of inhibition)
How it was run: as §1

[3] = system: Enterococcus faecalis 769; test: as above; format: cell-based; set-up: key: r = resistant (no detectable zone of inhibition)
How it was run: as §1

[4] = system: Staphylococcus aureus 315; test: as above; format: cell-based; set-up: key: r = resistant (no detectable zone of inhibition)
How it was run: as §1

S. epidermidis 125 = test: as above; format: cell-based, Staphylococcus epidermidis
How it was run: as §1

S. aureus 38418 = test: as above; format: cell-based, Staphylococcus aureus
How it was run: as §1

S. aureus ATCC 6538 = test: as above; format: cell-based, Staphylococcus aureus
How it was run: as §1

S. epidermidis 847 = test: as above; format: cell-based, Staphylococcus epidermidis; set-up: key: r = resistant (no detectable zone of inhibition)
How it was run: as §1

[5] = logP value by HPLC according to Donovan et al.; conditions: HPLC, methanol/0.1% phosphoric acid pH 2
Protocol: • Operating temperature 18-24° C. • Flow 1.5 mL/min • Linear gradient (methanol/0.1% phosphoric acid pH 2) from 10% to 100% methanol in 9.4 min, equilibrium time between 2 runs 6 min
ca. 0.5 mg of analyte is added to 0.5 ml of a standard solution (440 mg methyl phenyl sulfonate and 380 μl toluene in 150 mL methanol). 2 μl of this sample solution is injected.
Because the distribution coefficients of the two standards running in each test are known, the distribution coefficient of the analytes can be determined from the relationships of the analyte/standard retention times.

[6] = system: Staphylococcus aureus ATCC 6538; test: mouse infected with Staphylococcus aureus infection model (survival); format: in vivo, BALB/c mice
Protocol: Method for Effectiveness In Vivo with the Mouse Infected with Staphylococcus aureus Model
On Day 0, at least 3 BALB/c mice per test substance (Table 8) or controls are pretreated with cyclophosphamide (250 mg/kg) in 250 μl PBS inta peritoneal (i.p.).
On Day 2, the animals again received 100 mg/kg i.p.
On Day 2, a colony of the test germ is transferred from a growing agar plate (Müller-Hinton-Agar, Beckton Dickinson) into a flask with 10 ml CASO broth (CASO-B., Soyabean peptone-Casein peptone broth, SIFIN, 30 g/l) and is cultivated overnight at 37° C. and a shaking frequency of 250 rpm.
On Day 3, the pre-culture (Vk) is diluted 1:50 with CASO-B and further cultivated ca. 2 hours until an extinction in the medium of 0.6 at a wavelength of 550 nm is reached. Then, it is grown 1× with PBS at room temperature and set again to an extinction of 0.6.
At least 3 animals for a test substance or controls are infected with 10 μl/g body weight grown germs of a bacteria suspension with the extinction 0.6 (ca. 10^10-10^12 CFU, Colony forming units) i.p.
After 30 minutes, antibiotic solution is injected into the mice in a volume of 200 μl PBS with 3% DMSO i.p. 6 hours later, the second antibiotic injection is performed at the same concentration. […]

[7] = Quantity n 0.02 mol (first line per ingredient)
[8] = Quantity n 0.1 mol (second line per ingredient)
[9] = Quantity n 0.2 mol (third line per ingredient)
[10] = Quantity n 0.02 (first line per ingredient)
[11] = Quantity n 0.1 (second line per ingredient)
[12] = Quantity n 0.2 (third line per ingredient)

3-chlorine-7-[2-(5-methyl-3,4-dioxocyclohexa-1,5-dienylamino)-2-phenyl-acetylamino]-8-oxo-5-azabicyclo[4.2.0]oct-3-ene-4-carboxylic acid [1s]
Diameter of zone of inhibition, S. aureus 520 (S. aureus 520; Quantity n 0.02 mol): r | Diameter of zone of inhibition, S. aureus 520 (S. aureus 520; Quantity n 0.1 mol): r | Diameter of zone of inhibition, S. aureus 520 (S. aureus 520; Quantity n 0.2 mol): 10 mm | Diameter of zone of inhibition, S. aureus North German strain [1, 7]: r | Diameter of zone of inhibition, S. aureus North German strain [1, 8]: 8 mm | Diameter of zone of inhibition, S. aureus North German strain [1, 9]: 14 mm | Diameter of zone of inhibition, S. aureas 36881 (S. aureus 36881; Quantity n 0.02 mol): r | Diameter of zone of inhibition, S. aureas 36881 (S. aureus 36881; Quantity n 0.1 mol): r | Diameter of zone of inhibition, S. aureas 36881 (S. aureus 36881; Quantity n 0.2 mol): 10 mm | Diameter of zone of inhibition [2, 7]: r | Diameter of zone of inhibition [2, 8]: r | Diameter of zone of inhibition [2, 9]: 10 mm | Diameter of zone of inhibition, Enterococcus faecalis 769 ([3]; Quantity n 0.02): r | Diameter of zone of inhibition, Enterococcus faecalis 769 ([3]; Quantity n 0.1): r | Diameter of zone of inhibition, Enterococcus faecalis 769 ([3]; Quantity n 0.2): r | Diameter of zone of inhibition, Staphylococcus aureus 315 ([4]; Quantity n 0.02 mol): r | Diameter of zone of inhibition, Staphylococcus aureus 315 ([4]; Quantity n 0.1 mol): 8 mm | Diameter of zone of inhibition, Staphylococcus aureus 315 ([4]; Quantity n 0.2 mol): 12 mm | Diameter of zone of inhibition, S. epidermidis 125 (S. epidermidis 125; [7]): 14 mm | Diameter of zone of inhibition, S. epidermidis 125 (S. epidermidis 125; [8]): 22 mm | Diameter of zone of inhibition, S. epidermidis 125 (S. epidermidis 125; [9]): 26 mm | Diameter of zone of inhibition, S. aureas 38418 (S. aureus 38418; Quantity n 0.02): 14 mm | Diameter of zone of inhibition, S. aureas 38418 (S. aureus 38418; Quantity n 0.1): 24 mm | Diameter of zone of inhibition, S. aureas 38418 (S. aureus 38418; Quantity n 0.2): 28 mm | Diameter of zone of inhibition, S. aureus ATCC 6538 (S. aureus ATCC 6538; [7]): 20 mm | Diameter of zone of inhibition, S. aureus ATCC 6538 (S. aureus ATCC 6538; [8]): 30 mm | Diameter of zone of inhibition, S. aureus ATCC 6538 (S. aureus ATCC 6538; [9]): >30 mm | Diameter of zone of inhibition, S. epidermidis 847 (S. epidermidis 847; [10]): r | Diameter of zone of inhibition, S. epidermidis 847 (S. epidermidis 847; [11]): 14 mm | Diameter of zone of inhibition, S. epidermidis 847 (S. epidermidis 847; [12]): 18 mm

O=C(O)C1=C(Cl)CC2C(=O)C(NC(=O)C(NC3=C(C(=O)NCCO)C(=O)C=CC3=O)c3ccccc3)C2N1 (stereo not shown) [1m, 3-chlorine-7-{2-[2-(2-hydroxyethylcarbamoyl)-3,6-dioxocyclohexa-1,4-dienylamino]-2-phenyl-acetylamino}-8-oxo-5-azabicyclo[4.2.0]oct-3-ene-4-carboxylic acid]
logP value [5]: 1.62 | Diameter of zone of inhibition (S. aureus 520; Quantity n [mol] 0.018): r | Diameter of zone of inhibition (S. aureus 520; Quantity n [mol] 0.092): r | Diameter of zone of inhibition (S. aureus 520; Quantity n [mol] 0.18): 8 mm | Diameter of zone of inhibition ([1]; Quantity n 0.018): r | Diameter of zone of inhibition ([1]; Quantity n 0.092): r | Diameter of zone of inhibition ([1]; Quantity n 0.18): 12 mm | Diameter of zone of inhibition (S. aureus 36881; Quantity n 0.018): r | Diameter of zone of inhibition (S. aureus 36881; Quantity n 0.092): 16 mm | Diameter of zone of inhibition (S. aureus 36881; Quantity n 0.18): 20 mm | Diameter of zone of inhibition ([3]; Quantity n 0.018): r | Diameter of zone of inhibition ([3]; Quantity n 0.092): r | Diameter of zone of inhibition ([3]; Quantity n 0.18): r | Diameter of zone of inhibition ([4]; Quantity n 0.018): r | Diameter of zone of inhibition ([4]; Quantity n 0.092): r | Diameter of zone of inhibition ([4]; Quantity n 0.18): 8 mm | Diameter of zone of inhibition (S. epidermidis 125; Quantity n 0.018): 20 mm | Diameter of zone of inhibition (S. epidermidis 125; Quantity n 0.092): 26 mm | Diameter of zone of inhibition (S. epidermidis 125; Quantity n 0.18): 28 mm | Diameter of zone of inhibition (S. aureus 38418; Quantity n [mol] 0.018): 20 mm | Diameter of zone of inhibition (S. aureus 38418; Quantity n [mol] 0.092): 30 mm | Diameter of zone of inhibition (S. aureus 38418; Quantity n [mol] 0.18): >30 mm | Diameter of zone of inhibition (S. aureus ATCC 6538; Quantity n 0.018): 22 mm | Diameter of zone of inhibition (S. aureus ATCC 6538; Quantity n 0.092): >30 mm | Diameter of zone of inhibition (S. aureus ATCC 6538; Quantity n 0.18): >30 mm | Diameter of zone of inhibition (S. epidermidis 847; Quantity n [mol] 0.018): r | Diameter of zone of inhibition (S. epidermidis 847; Quantity n [mol] 0.092): 14 mm | Diameter of zone of inhibition (S. epidermidis 847; Quantity n [mol] 0.18): 18 mm | Survival/tested mice n/n ([6]; 2 × 0.5 mg (25 mg/kg) i.p.): 9/9

CC1=CC(NC(C(=O)NC2C(=O)N3C(C(=O)O)=C(C)CSC23)c2ccc(O)cc2)=CC(=O)C1=O (stereo not shown) [1q]
Diameter of zone of inhibition, S. aureus 520 (S. aureus 520; Quantity n 0.02 mol): r | Diameter of zone of inhibition, S. aureus 520 (S. aureus 520; Quantity n 0.1 mol): r | Diameter of zone of inhibition, S. aureus 520 (S. aureus 520; Quantity n 0.2 mol): 10 mm | Diameter of zone of inhibition, S. aureus North German strain [1, 7]: r | Diameter of zone of inhibition, S. aureus North German strain [1, 8]: 10 mm | Diameter of zone of inhibition, S. aureus North German strain [1, 9]: 12 mm | Diameter of zone of inhibition, S. aureas 36881 (S. aureus 36881; Quantity n 0.02 mol): r | Diameter of zone of inhibition, S. aureas 36881 (S. aureus 36881; Quantity n 0.1 mol): r | Diameter of zone of inhibition, S. aureas 36881 (S. aureus 36881; Quantity n 0.2 mol): 10 mm | Diameter of zone of inhibition [2, 7]: r | Diameter of zone of inhibition [2, 8]: r | Diameter of zone of inhibition [2, 9]: 10 mm | Diameter of zone of inhibition, Enterococcus faecalis 769 ([3]; Quantity n 0.02): r^1 | Diameter of zone of inhibition, Enterococcus faecalis 769 ([3]; Quantity n 0.1): r | Diameter of zone of inhibition, Enterococcus faecalis 769 ([3]; Quantity n 0.2): 10 mm | Diameter of zone of inhibition, Staphylococcus aureus 315 ([4]; Quantity n 0.02 mol): r | Diameter of zone of inhibition, Staphylococcus aureus 315 ([4]; Quantity n 0.1 mol): 10 mm | Diameter of zone of inhibition, Staphylococcus aureus 315 ([4]; Quantity n 0.2 mol): 14 mm | Diameter of zone of inhibition, S. epidermidis 125 (S. epidermidis 125; [7]): 12 mm | Diameter of zone of inhibition, S. epidermidis 125 (S. epidermidis 125; [8]): 20 mm | Diameter of zone of inhibition, S. epidermidis 125 (S. epidermidis 125; [9]): 26 mm | Diameter of zone of inhibition, S. aureas 38418 (S. aureus 38418; Quantity n 0.02): 10^2 mm | Diameter of zone of inhibition, S. aureas 38418 (S. aureus 38418; Quantity n 0.1): 18 mm | Diameter of zone of inhibition, S. aureas 38418 (S. aureus 38418; Quantity n 0.2): 22 mm | Diameter of zone of inhibition, S. aureus ATCC 6538 (S. aureus ATCC 6538; [7]): 16 mm | Diameter of zone of inhibition, S. aureus ATCC 6538 (S. aureus ATCC 6538; [8]): 20 mm | Diameter of zone of inhibition, S. aureus ATCC 6538 (S. aureus ATCC 6538; [9]): 26 mm | Diameter of zone of inhibition, S. epidermidis 847 (S. epidermidis 847; [10]): r | Diameter of zone of inhibition, S. epidermidis 847 (S. epidermidis 847; [11]): 14 mm | Diameter of zone of inhibition, S. epidermidis 847 (S. epidermidis 847; [12]): 16 mm | Survival/tested mice n/n ([6]; 2 × 0.5 mg (25 mg/kg) i.p.): 3/6 | Survival/tested mice n/n ([6]; 2 × 1.0 mg (50 mg/kg) i.p.): 1/3
